# Measured values: PubChem BioAssay AID463229 (Broad Institute, 2010)
# The source made the active and inactive calls.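 Rule for the calls: active = compounds raising the signal whose fitted half-maximal concentration is at or below their top tested dose (cut at about 25 µM in these data); inconclusive = flat fit at 30 to 70% activity, or a poor fit; inactive = the rest.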
# Test system: INS-1E rat beta cells, no cytokines, CellTiter-Glo ATP, 48 h
# Test: cytokine-free beta-cell viability effect – INS-1E rat cells, ATP luminescence, cherry pick, counter-screen for beta-cell apoptosis protection project, dose response (AID 463229)
row,Compound,AC50
1,Cc1ccc2c(c1)S/C(=C/c1ccc[n+](CCO)c1)N2C,3 µM
2,Cc1ccc(C(C)C)c(OCc2ccc(C(=O)N/N=C/c3cccc(O)c3O)cc2)c1,7.27 µM
3,CCc1ccc(-c2cc(C(F)(F)F)n3nc(C(=O)Nc4cnn(Cc5ccc(C)cc5)c4)cc3n2)s1,7.83 µM
4,Cc1cccc(NC(=O)Nc2cccc(Oc3c(F)c(F)c(F)c(F)c3F)c2)c1,6.96 µM
5,O=S(=O)(c1cc(F)ccc1F)N1CCN(c2ncnc3ccccc23)CC1,5.01 µM
6,COc1ccc(-c2nn(-c3ccccc3)cc2/C=N/Nc2ccc3ccccc3n2)cc1OC,7.19 µM
7,Cc1ccc(NC(=O)c2nc(S(=O)(=O)Cc3ccccc3)ncc2Cl)cc1,15.3 µM
8,CCN1CCN(CCCNC(=O)c2ccc3c(c2)NC(=O)/C(=C\c2cccc(C)c2)S3)CC1,12.3 µM
9,Cc1ccc(-n2cccc2C(=S)N=P(N(C)C)(N(C)C)N(C)C)cc1,7.11 µM
10,NNc1nc(-c2ccccc2)cc(-c2ccccc2O)n1,17.7 µM
11,CCOC(=O)C1CCN(C(=O)c2c(C)oc3c2C(=O)c2ccccc2C3=O)CC1,17.4 µM
12,O=C(N/N=C/c1cc([N+](=O)[O-])ccc1O)c1cc(-c2ccccc2)nc2ccccc12,5.78 µM
13,O=C(COc1ccc(Br)cc1)N1CCN(Cc2c[nH]c3ccccc23)CC1,3 µM
14,Nc1c(C(=O)Nc2ccc3c(c2)OCCO3)nnn1Cc1ccccc1Cl,5.53 µM
15,c1ccc(CSc2ccc(-c3ccccn3)nn2)cc1,18.8 µM
16,N#CC(C#N)=C(Nc1ccc(F)cc1)SCc1cccc(Br)c1,3.02 µM
17,CC(C)(C)c1ccc(-n2ncc3c2CCCC3NC(=O)C2(C(N)=O)CC2)cc1 (stereo not drawn),6.85 µM
18,COc1ccc(-c2sc3ccccc3c2-c2ccc(OCCN(C)C)cc2)cc1,7.12 µM
19,CCC(=O)NC(c1cccs1)c1ccc2cccnc2c1O (stereo not drawn),3.37 µM
20,Cc1ccc2c(c1)N(C)/C(=C/c1cccc[n+]1CCO)S2,3.18 µM
21,COC(=O)c1ccc2c(c1)C(C)(C)C(/C=C/c1ccc(OC)c(OC)c1OC)=[N+]2C,2.16 µM
22,CCC(CNc1cc(OC)cc2cccnc12)NC1CCCCC1 (stereo not drawn),> 26 µM (inactive)

row,Compound,AC50
1,O=C(CN1CCCc2ccccc21)N/N=C/c1ccccc1O,15 µM
2,CN(c1ccccc1)S(=O)(=O)c1ccc(NC(=O)c2nc(S(C)(=O)=O)ncc2Cl)cc1,7.32 µM
3,COc1ccccc1N(CC(=O)N/N=C/c1c(O)ccc2ccccc12)S(C)(=O)=O,7.54 µM
4,O=C(N/N=C/c1ccccc1O)c1ccc2c(c1)OCO2,7.41 µM
5,C/C(=N\NC(=O)c1ccccc1OCc1ccc(F)cc1)c1ccccn1,8.35 µM
6,O=[N+]([O-])c1cccc(-c2cn3nc(-c4ccccc4)c(-c4ccccc4)nc3n2)c1,10 µM
7,Cn1nc(-c2ccc(Cl)cc2)nc2c(=O)n(C)c(=O)nc1-2,0.508 µM
8,O=C(Oc1c(Cl)cc(Cl)c2cccnc12)c1cccs1,15 µM
9,O=C(N/N=C\c1cc(Br)ccc1O)c1ccc(S(=O)(=O)N2CCCCC2)cc1,3.54 µM
10,Nc1c(Cl)ncnc1N/N=C/c1ccc2ccccc2n1,4.38 µM
11,C/C(=N\NC(=O)c1nnn(-c2nonc2N)c1-c1ccccc1)c1ccccc1O,2.17 µM
12,Cc1[nH]n(-c2ccccc2)c(=O)c1/C=N/NC(=O)c1cccc(F)c1,4.23 µM
13,O=C(NC(Nc1nc2ccc([N+](=O)[O-])cc2s1)(C(F)(F)F)C(F)(F)F)c1ccccc1,0.367 µM
14,CCCCCCCCn1c(=O)c(C(=O)OC)c(N)c2ccccc21,4.89 µM
15,COc1ccc(OCc2n(CC(=O)OC3CC(C)CCC3C(C)C)c3ccccc3[n+]2C)cc1 (stereo not drawn),4.3 µM
16,CCCCCCCCCCCCCCCC[n+]1cccc(C(=O)N(CC)CC)c1,8.01 µM
17,CCCCCCSc1ccc([C@H]2N[C@@](Cc3ccccc3)(C(=O)OC)[C@H]3C(=O)N(C)C(=O)[C@@H]23)cc1,14.6 µM
18,c1cnc(N2CCN(Cc3c[nH]c4ccccc34)CC2)nc1,4.83 µM
19,Cc1ccc(-c2csc(N3CCC(NS(=O)(=O)c4ccc5c(c4)OCCO5)CC3)n2)cc1,6.85 µM
20,N=c1c2c(n(Cc3ccc(Cl)cc3Cl)c3c1CCC3)CCCC2,3.99 µM
21,FC(F)(F)c1cnc(NNC(=S)Nc2ccc(Cl)cc2)c(Cl)c1,6.99 µM
22,Cc1ccc(NS(=O)(=O)c2cc([N+](=O)[O-])ccc2NNC(=S)Nc2cc(C)ccc2C)c(C)c1,4.65 µM

row,Compound,AC50
1,O=C(Nc1ccc(Cl)cc1)Nc1ccc(N2CCCC2)c(S(=O)(=O)Nc2ccccc2Cl)c1,7.12 µM
2,NC(N)=NC(N)=Nc1ccc(SC(F)(F)F)cc1,2.76 µM
3,Oc1cccc(/C=N/Nc2ccc(Cl)nn2)c1O,4.69 µM
4,COc1ccc(/C=N/Nc2cc(C)nc(-n3nc(C)cc3C)n2)c(OC)c1,18.4 µM
5,CCCCC(=O)NC(c1ccccc1Cl)c1ccc2cccnc2c1O (stereo not drawn),2.09 µM
6,CCCC12C(=O)C(C)(C(c3ccccc3)=C1c1ccccc1)C1C(=O)N(c3ccc(C)cc3)C(=O)C12 (stereo not drawn),4.4 µM
7,Cc1ccc2nc(-c3ccc(NC(=O)c4cccnc4)cc3)oc2c1,7.8 µM
8,CCc1cc(CNC(=O)c2ccc3nc(Cc4ccc(OC)c(OC)c4)oc3c2)on1,9.39 µM
9,c1ccc(C2(Cn3ccc4ccccc43)OCCO2)cc1,> 26 µM (inactive)
10,CC(C)=CCc1cc2c(=O)c3c(O)c4c(cc3oc2c(O)c1O)OC(C)C4(C)C (stereo not drawn),7.43 µM
11,O=C(Nc1nc(-c2ccccn2)cs1)c1ccc(Br)s1,6.75 µM
12,Cc1ccc(NS(=O)(=O)c2cc([N+](=O)[O-])ccc2N/N=C/c2sc(N3CCOCC3)nc2-c2ccccc2)c(C)c1,11.9 µM
13,c1ccc(N2CCN(c3nc(-c4ccccn4)nc4ccccc34)CC2)cc1,14.9 µM
14,N=c1c2ccccc2nc2n1CCCCCCCCCCC2,13.9 µM
15,Cc1cc(C)n(CCC(=O)N/N=C/c2c(O)ccc3ccccc23)n1,9.78 µM
16,CN1CCN(c2ccc([N+](=O)[O-])c3no[n+]([O-])c23)CC1,1.9 µM
17,Cc1nc(NCCc2ccc(S(N)(=O)=O)cc2)c2c(C)c(C)sc2n1,6.2 µM
18,O=C(N/N=C/c1cc(Cl)ccc1O)C(=O)Nc1ccccc1OC(F)(F)C(F)F,8.81 µM
19,Oc1ccc2ccccc2c1N=Nc1nccs1,6.54 µM
20,COc1ccc(/C=N/Nc2cc(C)nc3ccc(Br)cc23)cc1,7.02 µM
21,Cc1oc2c(c1C(=O)N1CCC(C)CC1)C(=O)c1ccccc1C2=O,10.8 µM
22,C#CC(=O)N(c1cccc(OC)c1)C(C(=O)NC1CCCC1)c1cccs1 (stereo not drawn),14.7 µM

row,Compound,AC50
1,COc1cc2sc(-c3ccccc3OC)c(-c3ccc(OCCN4CCCCC4)cc3)c2cc1OC,7.57 µM
2,COc1cc(C(=O)NC(=S)NNC(=O)c2cnccn2)cc(OC)c1OC,7.66 µM
3,O=C(OCCOc1cccc(Cl)c1)c1cc(S(=O)(=O)N2CCCCC2)ccc1N1CCOCC1,7.78 µM
4,C/C(=N\NC(=O)C(c1ccccc1)c1ccccc1)c1ccccn1,8.03 µM
5,COc1ccc(C2/C=C\CN(C(=O)Nc3ccc(C(F)(F)F)cc3)CC(=O)N2Cc2ccc(F)cc2)cc1 (stereo not drawn),7.66 µM
6,CCCC(=O)NC(c1ccc(OC)c(OC)c1)c1cc(Cl)c2cccnc2c1O (stereo not drawn),7.47 µM
7,Cc1ccc(-n2c(-c3ccccc3)c[n+]3c2CCC3)cc1,3.11 µM
8,Cc1[nH]c2ccccc2c1CN1CCC(Cc2ccccc2)CC1,3.99 µM
9,CCCCC(=O)NC(c1ccccc1)c1ccc2cccnc2c1O (stereo not drawn),2.24 µM
10,COc1ccc(C(=O)NC(=S)NNC(=O)c2cnccn2)cc1OC,7.95 µM
11,COc1ccc2[nH]c(C(=O)N/N=C/c3ccc(O)cc3O)cc2c1,2.08 µM
12,CCc1c(C)sc2nc(C(C)C)nc(SCC(=O)N3CCc4ccccc4C3)c12,2.08 µM
13,Cc1ccc(NC(=O)/C=C/c2ccc([N+](=O)[O-])s2)c(C)c1,13.1 µM
14,Cc1cccc2nc(CSc3nc4[nH]ncc4c(=O)n3-c3cccc(Cl)c3)cc(=O)n12,7.35 µM
15,COc1cccc(/C=N/NC(=O)c2cc3cc([N+](=O)[O-])ccc3s2)c1O,7.08 µM
16,CCCCS(=O)(=O)/C=C\C=C/S(=O)(=O)CCCC,5.48 µM
17,Cc1onc(-c2ccccc2)c1C(=O)NC(=S)NNC(=O)c1ccc(O)cc1O,0.657 µM
18,CCN1CCN(Cc2ccc(NC(=O)c3cc(NC(=O)c4cncc(-c5ccc(C#N)cc5)c4)cc(OC)c3)cc2C(F)(F)F)CC1,10.8 µM
19,COCC1CCCCN1C(=O)c1cc(COc2ccc3ncccc3c2)on1 (stereo not drawn),7.39 µM
20,Cc1ccc(NC(=O)c2cc(S(=O)(=O)NCCC3=CCCCC3)ccc2F)cc1F,6.58 µM
21,COc1ccc(-c2cn(Cc3ccc(C(=O)c4ccccc4)cc3)nn2)cc1,11.6 µM
22,C#CCOCCOCCOCCNc1nc(N2CCN(C(=O)CCCCCCCCCCNC(=O)Cn3cc(CCCCCN)nn3)CC2)nc(N2CCN(C(=O)CCCCCCCCCCNC(=O)[C@H]([C@@H](C)CC)n3cc(CCCCN=C(N)N)nn3)CC2)n1,8.89 µM

row,Compound,AC50
1,Cc1sc2ncnc(N3CCN(S(=O)(=O)c4ccc(C(C)(C)C)cc4)CC3)c2c1C,4.17 µM
2,CCN(CC)CCn1c2ccccc2c2cnc(N)c(C#N)c21,14.3 µM
3,Cc1ccc(C(=O)Nc2cccc3[nH]c(C(F)(F)F)nc23)cc1,13.3 µM
4,Cc1ccc(Nc2c(-c3ccccn3)nc3cccc(C)n23)cc1,6.47 µM
5,CN(c1ccccc1)c1ccc(/C=C/[N+](=O)[O-])cc1,8.01 µM
6,CC(Nc1ncnc2ccccc12)c1ccccc1 (stereo not drawn),3.58 µM
7,c1ccc(-c2csc3ncnc(NCC4COc5ccccc5O4)c23)cc1 (stereo not drawn),2.79 µM
8,Cc1ccc(-c2cn(-c3ccc(SC(F)F)cc3)c3[n+]2CCC3)cc1,5.91 µM
9,O=C1C(=O)c2c(C(=O)c3ccccc3)coc2-c2ccccc21,7.21 µM
10,COc1ccc(/C=C/C(=O)c2ccc([N+](=O)[O-])o2)cc1OC,4.93 µM
11,Oc1cccc2ccc(Nc3ccccn3)nc12,2.27 µM
12,Cc1ccc(NS(=O)(=O)c2ccc(NC(=O)CN(c3cc([N+](=O)[O-])ccc3C)S(C)(=O)=O)cc2)c(C)c1,1.86 µM
13,Oc1ccccc1/C=N/Nc1nc2ccccc2o1,4.62 µM
14,[O-][N+]1=c2ccc(Nc3ccccc3)cc2=NC12CCCCC2,12.5 µM
15,CC1=C/C(=N\OS(=O)(=O)c2ccccc2)C(C(C)C)=CC1=O,6.84 µM
16,O=C(NCCCn1ccnc1)c1ccc(-c2ccccc2)cc1,8.12 µM
17,COc1ccc(-c2cc(-c3ccccc3)[n+](C)c(-c3ccccc3)c2)cc1,4.28 µM
18,COc1ccc(NS(=O)(=O)c2ccc(-c3coc(C)n3)cc2)cc1OC,4.39 µM
19,Nc1nonc1-n1nnc(C(=O)N/N=C/c2cc(Br)ccc2O)c1CSC1=NCCS1,3.58 µM
20,CCOc1cc(N2CCOCC2)c(OCC)cc1NC(=O)COc1cccc2cccnc12,3.61 µM
